Measured values: PMC7708037, “Targeting OGG1 arrests cancer cell proliferation by inducing replication stress” (Nucleic Acids Research, 2020)
Like-named read-outs stand apart in the source and are kept apart here.

How the values were obtained:
OGG1 enzyme = OGG1 enzyme (Homo sapiens, UniProt O15527); experiment: OGG1 activity in vitro (biochemical assay); conditions: for IC50: 1 nM OGG1, 10 nM 8oxoA:C substrate, 2 nM APE1, read-out: IC50 of OGG1 inhibition
Protocol: OGG1 activity was assessed in vitro as previously described ([39]).
Figure 7. […] (A) Lack of TH5487 efficacy in vivo. A3 cells were injected subcutaneously in mice, allowed to graft for three days and then administered […] TH5487 orally, once a day on weekdays. Twelve days into the treatment, the dose was increased to 40 mg/kg. Data are average ± SD (n = 9 per treatment group). (B) TH5487 target engagement in A3 xenograft. Tumors were excised following termination, and TH5487 target engagement was analyzed by cellular thermal shift assay, using an antibody specific for the human OGG1 protein. Data are average ± SD (n = 4 different tumors per group). (C) Effect of bovine serum albumin on OGG1 inhibition by TH5487. A dilution series of TH5487 was incubated with OGG1 enzyme and a DNA reporter oligonucleotide containing an OGG1-substrate, in the presence or absence of 1% (w/v) bovine serum albumin. Data are average ± SD of four technical replicates from two independent experiments.
Supplementary Fig. S4: OGG1 inhibitors selectively inhibt cancer cell line proliferation A. TH5796 and TH6943 inhibit OGG1 activity in vitro. OGG1 enzyme was treated with the indicated concentration inhibitor in technical duplicates. The line connects the average values. TH5796 inhibits OGG1 with an […]
with the indicated concentrations of TH5796 or TH6943 and 10 nM 8oxoA:C substrate in the presence of 2 nM APE1 as described. B. Chemical structure of TH5487 and the analogues described in this work.
C. Correlation between TH5487 EC 50 values and TH5796 or TH6943. Cell lines were treated for five […]
experiments. The lines indicate the best fit linear regression line, and R 2 the corresponding coefficient of determination. D. to F. Cancer cell selectivity for TH5487 (D), TH5796 (E) and TH6943 (F). Cell lines were treated as in Fig. 3E, and each point represents the EC50 value determined from 1 –5 independent […]
(1 picture or pasted object on this page, not shown here)

A3 = experiment: Resazurin viability, 5 days; type: cell-based, human; conditions: A3, C, T-cell acute lymphoblastic leukemia
Protocol: (§1) Cells were seeded in 96- or 384-well plates and incubated for 3 days for combination experiments or 5 days for single-drug exposure experiments. Resazurin (R7017, SigmaAldrich) was added to a final concentration of 0.01 mg/ml resazurin and fluorescence was measured at ex530/em590 after incubation for 2, 4 or 6 h. Curves were fitted using XLfit software (IDBS) or Prism 8.0 (Graphpad Software), and EC50 values were determined.
(§2) Supplementary Table S1: Effect of OGG1 inhibitors on cancer and non-transformed cell lines.
(§3) Cell lines were incubated with a dilution series of the indicated compounds for 5 days, and viability
(§4) assessed with resazurin. EC50-values were calculated based on the resulting dose -response curves.
(§5) The number of independent experiments is indicated for each value.
(§6) C=cancer;N=non- Disease EC50 n= EC50 n= EC50 n=
(§7) transformed (µM) (µM) (µM)

CCRF-CEM = experiment: Resazurin viability, 5 days; type: cell-based, human; conditions: C, T-cell acute lymphoblastic leukemia
Protocol: as §1, §2, §3, §4, §5, §6, §7
A3 C T-cell acute lymphoblastic leukemia 10.0 12 7.9 7 9.8 5 […]
CCRF-CEM C T-cell acute lymphoblastic leukemia 13.0 5 10.5 2 7.9 2 […]

PL-21 = experiment: Resazurin viability, 5 days; type: cell-based, human; conditions: PL-21, C, Acute myeloid leukemia
Protocol: as §1, §2, §3, §4, §5, §6

A498 = experiment: Resazurin viability, 5 days; type: cell-based, human; conditions: A498, C, Kidney carcinoma
Protocol: as §1, §2, §3, §4, §5, §6

SW480 = experiment: Resazurin viability, 5 days; type: cell-based, human; conditions: SW480, C, Colorectal adenocarcinoma
Protocol: as §1, §2, §3, §4, §5, §6

HeLa = experiment: Resazurin viability, 5 days; type: cell-based, human; conditions: C, Cervix adenomcarcinoma
Protocol: as §1, §2, §3, §4, §5, §6

PC3 = experiment: Resazurin viability, 5 days; type: cell-based, human; conditions: PC3, C, Prostate adenocarcinoma
Protocol: as §1, §2, §3, §4, §5, §6

VH10 = experiment: Resazurin viability, 5 days; type: cell-based, human; conditions: VH10, N, Non-transformed fibroblast
Protocol: as §1, §2, §3, §4, §5, §6

SaOS2 = experiment: Resazurin viability, 5 days; type: cell-based, human; conditions: SaOS2, C, Osteosarcoma
Protocol: as §1, §2, §3, §4, §5, §6

HCT116 = experiment: Resazurin viability, 5 days; type: cell-based, human; conditions: HCT116, C, Colorectal carcinoma
Protocol: as §1, §2, §3, §4, §5, §6

BJ-Tert = experiment: Resazurin viability, 5 days; type: cell-based, human
Protocol: as §1, §2, §3, §4, §5, §6

MV4-11 = experiment: Resazurin viability, 5 days; type: cell-based, human; conditions: MV4-11, C, Acute monocytic leukemia
Protocol: as §1, §2, §3, §4, §5, §6

CCD841 = experiment: Resazurin viability, 5 days; type: cell-based, human; conditions: CCD841, N, Non-transformed fibroblast
Protocol: as §1, §2, §3, §4, §5, §6

M059K = experiment: Resazurin viability, 5 days; type: cell-based, human; conditions: C, Glioblastoma
Protocol: as §1, §2, §3, §4, §5, §6

Rec1 = experiment: Resazurin viability, 5 days; type: cell-based, human; conditions: Rec1, C, B cell non-Hodgkin's lymphoma
Protocol: as §1, §2, §3, §4, §5, §6

T98G = experiment: Resazurin viability, 5 days; type: cell-based, human; conditions: C, Glioblastoma
Protocol: as §1, §2, §3, §4, §5, §6

UO31 = experiment: Resazurin viability, 5 days; type: cell-based, human; conditions: UO31, C, Kidney carcinoma
Protocol: as §1, §2, §3, §4, §5, §6

HL-60 = experiment: Resazurin viability, 5 days; type: cell-based, human; conditions: HL-60, C, Acute promyelocytic leukemia
Protocol: as §1, §2, §3, §4, §5, §6

Reh = experiment: Resazurin viability, 5 days; type: cell-based, human; conditions: C, Acute lymphocytic leukemia (non-T, non-B)
Protocol: as §1, §2, §3, §4, §5, §6
(§8) transformed (µM) (µM) (µM) […]

LCL#1 = experiment: Resazurin viability, 5 days; type: cell-based, human; conditions: LCL#1, N, Non-transformed lymphoblastoid cell line
Protocol: as §1, §2, §3, §4, §5, §6, §8

BJ-Ras = experiment: Resazurin viability, 5 days; type: cell-based, human; conditions: C, RAS-transformed fibroblast
Protocol: as §1, §2, §3, §4, §5, §6, §8

ACHN = experiment: Resazurin viability, 5 days; type: cell-based, human; conditions: C, Kidney adenocarcinoma
Protocol: as §1, §2, §3, §4, §5, §6, §8

RFX393 = experiment: Resazurin viability, 5 days; type: cell-based, human; conditions: RFX393, C, Kidney carcinoma
Protocol: as §1, §2, §3, §4, §5, §6, §8

Jurkat = experiment: Resazurin viability, 5 days; type: cell-based, human; conditions: C, T-cell acute lymphoblastic leukemia
Protocol: as §1, §2, §3, §4, §5, §6, §8

LCL#2 = experiment: Resazurin viability, 5 days; type: cell-based, human; conditions: LCL#2, N, Non-transformed lymphoblastoid cell line
Protocol: as §1, §2, §3, §4, §5, §6, §8

MEF Ogg1(-/-) = experiment: Resazurin viability, 5 days; type: cell-based; conditions: N, Non-transformed mouse embryonic fibroblast
Protocol: as §1, §2, §3, §4, §5, §6, §8

[1] = Homo sapiens, 120 h, BJ-Tert, N, Tert-Immortalized fibroblast, 5 days, resazurin, read-out: EC50

OGG1 enzyme, sequence (O15527 whole entry): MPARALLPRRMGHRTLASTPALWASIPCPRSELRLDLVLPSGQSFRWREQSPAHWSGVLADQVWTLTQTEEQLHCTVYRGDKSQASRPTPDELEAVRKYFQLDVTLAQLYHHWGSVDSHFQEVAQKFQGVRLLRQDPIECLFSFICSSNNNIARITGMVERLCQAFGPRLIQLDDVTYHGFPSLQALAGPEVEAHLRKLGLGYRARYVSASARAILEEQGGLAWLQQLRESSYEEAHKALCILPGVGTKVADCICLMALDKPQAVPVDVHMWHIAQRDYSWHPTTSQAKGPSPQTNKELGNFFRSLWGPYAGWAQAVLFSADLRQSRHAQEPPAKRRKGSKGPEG

Cc1cc(NC(=O)N2CCC(n3c(=O)[nH]c4c(Br)cccc43)CC2)ccc1I [TH6943, 4-(4-Bromo-2-oxo-3H-benzimidazol-1-yl)-N-(4-iodo-3-methyl-phenyl)piperidine-1-carboxamide]
IC50 (OGG1 enzyme): 0.17 µM | EC50 (A3; Homo sapiens, 120 h): 9.8 µM | EC50 (CCRF-CEM; Homo sapiens, 120 h): 7.9 µM | EC50 (PL-21; Homo sapiens, 120 h): 18.4 µM | EC50 (A498; Homo sapiens, 120 h): 35.1 µM | EC50 (SW480; Homo sapiens, 120 h): 29.8 µM | EC50 (HeLa; Homo sapiens, 120 h): 34.9 µM | EC50 (PC3; Homo sapiens, PC-3, 120 h): 28.7 µM | EC50 (VH10; Homo sapiens, 120 h): 47.5 µM | EC50 (SaOS2; Homo sapiens, SAOS-2, 120 h): 19.8 µM | EC50 (HCT116; Homo sapiens, HCT-116, 120 h): 28.6 µM | EC50 (BJ-Tert; [1]): 30.5 µM | EC50 (MV4-11; Homo sapiens, 120 h): 9.6 µM | EC50 (CCD841; Homo sapiens, CCD-841, 120 h): 54.2 µM | EC50 (M059K; Homo sapiens, 120 h): 27 µM | EC50 (Rec1; Homo sapiens, 120 h): 14.8 µM | EC50 (T98G; Homo sapiens, 120 h): 16.7 µM | EC50 (UO31; Homo sapiens, UO-31, 120 h): 3.2 µM | EC50 (HL-60; Homo sapiens, 120 h): 23.9 µM | EC50 (Reh; Homo sapiens, 120 h): 17.3 µM | EC50 (LCL#1; Homo sapiens, 120 h): 40 µM | EC50 (BJ-Ras; Homo sapiens, 120 h): 14.1 µM | EC50 (ACHN; Homo sapiens, 120 h): 2.8 µM | EC50 (RFX393; Homo sapiens, 120 h): 11.7 µM | EC50 (Jurkat; Homo sapiens, 120 h): 15.2 µM | EC50 (LCL#2; Homo sapiens, 120 h): 32.3 µM | EC50 (MEF Ogg1(-/-); 120 h): 34.3 µM

O=C(Nc1ccc(Cl)c(Cl)c1)N1CCC(n2c(=O)[nH]c3c(-c4ccc(CO)nc4)cccc32)CC1 [TH5796, N-(3,4-Dichlorophenyl)-4-[4-[6-(hydroxymethyl)-3-pyridyl]-2-oxo-3H-benzimidazol-1-yl]piperidine-1-carbox amide]
IC50 (OGG1 enzyme): 0.766 µM | EC50 (A3; Homo sapiens, 120 h): 7.9 µM | EC50 (CCRF-CEM; Homo sapiens, 120 h): 10.5 µM | EC50 (PL-21; Homo sapiens, 120 h): 10.2 µM | EC50 (A498; Homo sapiens, 120 h): 21.2 µM | EC50 (SW480; Homo sapiens, 120 h): 20.3 µM | EC50 (HeLa; Homo sapiens, 120 h): 15.8 µM | EC50 (PC3; Homo sapiens, PC-3, 120 h): 19.3 µM | EC50 (VH10; Homo sapiens, 120 h): 20.9 µM | EC50 (SaOS2; Homo sapiens, SAOS-2, 120 h): 16.2 µM | EC50 (HCT116; Homo sapiens, HCT-116, 120 h): 14.7 µM | EC50 (BJ-Tert; [1]): 24.4 µM | EC50 (MV4-11; Homo sapiens, 120 h): 6.5 µM | EC50 (CCD841; Homo sapiens, CCD-841, 120 h): 39.7 µM | EC50 (M059K; Homo sapiens, 120 h): 19.4 µM | EC50 (Rec1; Homo sapiens, 120 h): 12.6 µM | EC50 (T98G; Homo sapiens, 120 h): 18.5 µM | EC50 (UO31; Homo sapiens, UO-31, 120 h): 7.1 µM | EC50 (HL-60; Homo sapiens, 120 h): 14.4 µM | EC50 (Reh; Homo sapiens, 120 h): 14.7 µM | EC50 (LCL#1; Homo sapiens, 120 h): 33.5 µM | EC50 (BJ-Ras; Homo sapiens, 120 h): 15.1 µM | EC50 (ACHN; Homo sapiens, 120 h): 8.5 µM | EC50 (RFX393; Homo sapiens, 120 h): 14.2 µM | EC50 (Jurkat; Homo sapiens, 120 h): 13.8 µM | EC50 (LCL#2; Homo sapiens, 120 h): 40.7 µM | EC50 (MEF Ogg1(-/-); 120 h): 45.8 µM

O=C(Nc1ccc(I)cc1)N1CCC(n2c(=O)[nH]c3c(Br)cccc32)CC1 [TH5487]
Effect of bovine serum albumin on OGG1 inhibition (OGG1 enzyme; presence of 1% (w/v) bovine serum albumin): marked loss of inhibition of OGG1 enzyme activity | EC50 (A3): 10 µM | EC50 (CCRF-CEM): 13 µM | EC50 (PL-21): 20.6 µM | EC50 (A498): 28.5 µM | EC50 (SW480): 33.3 µM | EC50 (HeLa): 19.3 µM | EC50 (PC3): 32.6 µM | EC50 (VH10): 32.4 µM | EC50 (SaOS2): 21.4 µM | EC50 (HCT116): 17.5 µM | EC50 (BJ-Tert; BJ-Tert, N, Tert-Immortalized fibroblast, 5 days, resazurin, read-out: EC50): 33.7 µM | EC50 (BJ-Tert; hTERT-immortalized BJ fibroblasts, five days, Figure 3C, read-out: EC50 (viability)): 29.5 ± 4.7 µM | EC50 (MV4-11): 7.8 µM | EC50 (CCD841): 43.3 µM | EC50 (M059K): 20.3 µM | EC50 (Rec1): 13.7 µM | EC50 (T98G): 14.5 µM | EC50 (UO31): 2.9 µM | EC50 (HL-60): 15.9 µM | EC50 (Reh): 18.3 µM | EC50 (LCL#1): 31.1 µM | EC50 (BJ-Ras): 4.8 µM | EC50 (ACHN): 2.3 µM | EC50 (RFX393): 19.6 µM | EC50 (Jurkat): 10.5 µM | EC50 (LCL#2): 27.7 µM | EC50 (MEF Ogg1(-/-)): 47.7 µM
